# Data: patent US12629374B2, “Antimalarial agents” (Merck Sharp & Dohme LLC, priority 2020, dated 2026)
# Test system: ring stage parasites
# Assay: Parasite growth potency assay, 72 hours, LDH readout
# Format: cell-based
# Settings: 72 h, parasite growth measured by LDH assay after 72 hours at 37° C.; 0.7% rings, 2% haematocrit; read-out: EC50
# Description: The parasite stock was maintained at 4% haematocrit in RPMI-Hepes media buffered with sodium bicarbonate and supplemented with 5% heat inactivated human serum and 0.5% albumax.
# On the day of assay set up, a blood smear of the parasite culture was Giemsa stained and counted. The parasitemia was adjusted to 0.7% rings and the haematocrit was diluted to 2% in RPMI-Hepes media buffered with sodium bicarbonate and supplemented with 5% heat inactivated human serum and 0.5% albumax. 30 ul of diluted parasites are then added into 10 ul of media+compound in pre-prepared Greiner TC assay plates. Parasite assay plates were placed in gassed humidified boxes in single layer and allowed to incubate at 37° C. for 72 hours. After 72 hours growth, assay plates are sealed with parafilm and frozen flat, in single file at −80° C. overnight. On the following day, assay plates are allowed to thaw at room temperature for 4 hours to which an LDH assay is performed to measure parasite growth.
row,Compound,EC50 [nM]
1,"CCC[C@H](c1cccc(C(=O)NC2CC(C)(C)Oc3ccccc32)c1)N1C(=N)NC(CC)(CC)CC1=O (stereo in doubt) [Example 62A, [1-[1-[3-[(2,2-dimethylchroman-4-yl)carbamoyl]phenyl]butyl]-4,4-diethyl-6-oxo-hexahydropyrimidin-2-ylidene]ammonium; 2,2,2-trifluoroacetate]",0.4
2,"CCC[C@@H](c1cccc(C(=O)NC2CC(C)(C)Oc3ccccc32)c1)N1C(=N)NC(CC)(CC)CC1=O (stereo in doubt) [Example 62B, [1-[1-[3-[(2,2-dimethylchroman-4-yl)carbamoyl]phenyl]butyl]-4,4-diethyl-6-oxo-hexahydropyrimidin-2-ylidene]ammonium; 2,2,2-trifluoroacetate]",7.5
3,"CCC1(CC)CC(=O)N([C@@H](CCOC)c2cccc(C(=O)NC3CC(C)(C)Oc4ccccc43)c2)C(=N)N1 (stereo in doubt) [Example 72A, [1-[1-[3-[(2,2-dimethylchroman-4-yl)carbamoyl]phenyl]-3-methoxy-propyl]-4,4-diethyl-6-oxo-hexahydropyrimidin-2-ylidene]ammonium; 2,2,2-trifluoroacetate]",25.5
4,"CCC1(CC)CC(=O)N([C@H](CCOC)c2cccc(C(=O)NC3CC(C)(C)Oc4ccccc43)c2)C(=N)N1 (stereo in doubt) [Example 72B, [1-[1-[3-[(2,2-dimethylchroman-4-yl)carbamoyl]phenyl]-3-methoxy-propyl]-4,4-diethyl-6-oxo-hexahydropyrimidin-2-ylidene]ammonium; 2,2,2-trifluoroacetate]",0.3
5,"CC#CCC[C@H](c1cccc(C(=O)N[C@H]2CC(C)(C)Oc3ccccc32)c1)N1C(=N)NC(CC)(CC)CC1=O (stereo in doubt) [Example 83B, [1-[1-[3-[(2,2-dimethylchroman-4-yl)carbamoyl]phenyl]hex-4-ynyl]-4,4-diethyl-6-oxo-hexahydropyrimidin-2-ylidene]ammonium; 2,2,2-trifluoroacetate]",0.4
6,"CCC1(CC)CC(=O)N(Cc2cccc(C(=O)N[C@@H]3c4ccccc4OCC3F)c2)C(=N)N1 (stereo in doubt) [Example 87, [4,4-diethyl-1-[[3-[(3-fluorochroman-4-yl)carbamoyl]phenyl]methyl]-6-oxo-hexahydropyrimidin-2-ylidene]ammonium; 2,2,2-trifluoroacetate]",7.3
7,"CCC1(CC)CC(=O)N(Cc2cccc(C(=O)N[C@H]3CC(C)(C)Oc4ccc(F)cc43)c2)C(=N)N1 (stereo in doubt) [Example 88, [4,4-diethyl-1-[[3-[(6-fluoro-2,2-dimethyl-chroman-4-yl)carbamoyl]phenyl]methyl]-6-oxo-hexahydropyrimidin-2-ylidene]ammonium; 2,2,2-trifluoroacetate]",0.4
8,"CCC1(CC)CC(=O)N(Cc2cc(C#N)cc(C(=O)N[C@@H]3CC(C)(C)Oc4ccccc43)c2)C(=N)N1 (stereo in doubt) [Example 89A, [1-[[3-cyano-5-[(2,2-dimethylchroman-4-yl)carbamoyl]phenyl]methyl]-4,4-diethyl-6-oxo-hexahydropyrimidin-2-ylidene]ammonium; 2,2,2-trifluoroacetate]",9.8
9,"CCC1(CC)CC(=O)N(Cc2cc(C#N)cc(C(=O)N[C@H]3CC(C)(C)Oc4ccccc43)c2)C(=N)N1 (stereo in doubt) [Example 89B, [1-[[3-cyano-5-[(2,2-dimethylchroman-4-yl)carbamoyl]phenyl]methyl]-4,4-diethyl-6-oxo-hexahydropyrimidin-2-ylidene]ammonium; 2,2,2-trifluoroacetate]",1.6
10,"CCC1(CC)CC(=O)N([C@H](c2cccc(C(=O)N[C@H]3CC(C)(C)Oc4ccccc43)c2)c2cncs2)C(=N)N1 (stereo in doubt) [Example 90C, 3-[(4,4-diethyl-2-imino-6-oxo-hexahydropyrimidin-1-yl)-thiazol-5-yl-methyl]-N-(2,2-dimethylchroman-4-yl)benzamide]",12
11,"CCC1(CC)CC(=O)N(Cc2cccc(C(=O)N[C@@H]3C[C@@H](C(F)(F)F)Oc4ccccc43)c2)C(=N)N1 (stereo in doubt) [Example 91B, [4,4-diethyl-6-oxo-1-[[3-[[2-(trifluoromethyl)chroman-4-yl]carbamoyl]phenyl]methyl]hexa-hydropyrimidin-2-ylidene]ammonium; 2,2,2-trifluoroacetate]",63.7
12,"CCC1(CC)CC(=O)N([C@H](c2cncnc2)c2cccc(C(=O)N[C@H]3CC(C)(C)Oc4ccccc43)c2)C(=N)N1 (stereo in doubt) [Example 92B, 3-[(4,4-diethyl-2-imino-6-oxo-hexahydropyrimidin-1-yl)-pyrimidin-5-yl-methyl]-N-(2,2-dimethylchroman-4-yl)benzamide]",0.9
13,"CCC1(CC)CC(=O)N(Cc2cccc(C(=O)N[C@H]3CC(C)(C)Oc4cc(F)ccc43)c2)C(=N)N1 (stereo in doubt) [Example 93, [4,4-diethyl-1-[[3-[(7-fluoro-2,2-dimethyl-chroman-4-yl)carbamoyl]phenyl]methyl]-6-oxo-hexahydropyrimidin-2-ylidene]ammonium; 2,2,2-trifluoroacetate]",1.8
14,"CCC1(CC)CC(=O)N(Cc2cccc(C(=O)N[C@H]3CC(C)(C)Oc4cccc(F)c43)c2)C(=N)N1 (stereo in doubt) [Example 94A, [4,4-diethyl-1-[[3-[(5-fluoro-2,2-dimethyl-chroman-4-yl)carbamoyl]phenyl]methyl]-6-oxo-hexahydropyrimidin-2-ylidene]ammonium; 2,2,2-trifluoroacetate]",0.4

# Same assay, conditions: parasite growth measured by LDH assay after 72 hours at 37° C.; 0.7% rings, 2% haematocrit; read-out: EC50
row,Compound,EC50 [nM]
1,"CC[C@]1(C)CC(=O)N(C(CCOC(F)F)c2cccc(C(=O)NC3c4ccccc4OC(C)(C)C3(C)O)c2)C(=N)N1 (single isomer, unassigned) [Example 240A]",91.6
2,"CC[C@]1(C)CC(=O)N(C(CCOC(F)F)c2cccc(C(=O)NC3c4ccccc4OC(C)(C)C3(C)O)c2)C(=N)N1 (single isomer, unassigned) [Example 240B]",0.25
3,"CCC1(CC)CC(=O)N([C@@H](c2cccc(C(=O)N[C@@H]3CC(C)(C)Oc4ccccc43)c2)c2cncs2)C(=N)N1 (stereo in doubt) [Example 90A, 3-[(4,4-diethyl-2-imino-6-oxo-hexahydropyrimidin-1-yl)-thiazol-5-yl-methyl]-N-(2,2-dimethylchroman-4-yl)benzamide]",3.2
4,"CCC1(CC)CC(=O)N([C@@H](c2cccc(C(=O)N[C@@H]3CC(C)(C)Oc4ccccc43)c2)c2cncs2)C(=N)N1 (stereo in doubt) [Example 90B, 3-[(4,4-diethyl-2-imino-6-oxo-hexahydropyrimidin-1-yl)-thiazol-5-yl-methyl]-N-(2,2-dimethylchroman-4-yl)benzamide]",0.5

# Same assay, conditions: parasite growth measured by LDH assay after 72 hours at 37° C.; 0.7% rings, 2% haematocrit; trifluoroacetate; read-out: EC50
row,Compound,EC50 [nM]
1,"CCC1(CC)CC(=O)N(Cc2cccc(C(=O)N[C@H]3C[C@H](C(F)(F)F)Oc4ccccc43)c2)C(=N)N1 (stereo in doubt) [Example 91A, [4,4-diethyl-6-oxo-1-[[3-[[2-(trifluoromethyl)chroman-4-yl]carbamoyl]phenyl]methyl]hexa-hydropyrimidin-2-ylidene]ammonium; 2,2,2-trifluoroacetate]",1.9
